Test results taken from patent publication US20030157672A1, “Nitrilase from rhodococcus rhodochrous ncimb 11216” (priority 2000, published 2003).

B1: nitrilase with His6 motif: Recombinant nitA nitrilase of R. rhodochrous NCIMB 11216 with C-terminal His6 motif from E. coli JM 109 (pDHE 18), purified on Ni2+-NTA (protein, UniProt Q03217 2-366, looked up)
Aliphatic nitrilase: VEYTNTFKVAAVQAQPVWFDAAKTVDKTVSIIAEAARNGCELVAFPEVFIPGYPYHIWVDSPLAGMAKFAVRYHENSLTMDSPHVQRLLDAARDHNIAVVVGISERDGGSLYMTQLVIDADGQLVARRRKLKPTHVERSVYGEGNGSDISVYDMPFARLGALNCWEHFQTLTKYAMYSMHEQVHVASWPGMSLYQPEVPAFGVDAQLTATRMYALEGQTFVVCTTQVVTPEAHEFFCDNDEQRKLIGRGGGFARIIGPDGRDLATPLAEDEEGILYADIDLSAITLAKQAADPVGHYSRPDVLSLNFNQRHTTPVNTAISTIHATHTLVPQSGALDGVRELNGADEQRALPSTHSDETDRATASI
modifications: C-terminal His6 tag
notes: Recombinant nitA nitrilase of R. rhodochrous NCIMB 11216 with C-terminal His6 motif from E. coli JM 109 (pDHE 18), purified on Ni2+-NTA

System: not listed separately
Assay: Conversion of benzonitrile into benzoic acid by nitrilase crude extract or purified nitrilase (HPLC)
Assay type: biochemical
Details: purified using QIAexpress-Ni2+-NTA; enzyme concentration 50 μg/ml; initial benzonitrile 10 mM, 30° C., pH 7.5, 50 mM Tris/HCl, 0.1 mM DTT
Description: For heterologous expression on the laboratory scale, JM 109 (pDHE 17) from a 37° C. overnight culture was inoculated 1:200 in 50 ml dYT complete mediumn (Sambrook et al., 1989) with 0.2% L-rhamnose, and the culture was cultivated with induction in the shaking water bath at 30° C. for 8 h. The cells were then washed once in 50 mM Tris/HCl, pH 7.5, resuspended in the same buffer equivalent to an OD600 of 10, and disrupted by ultrasound treatment. The procedure with JM 109 (pDHE 18) was analogous. The protein pattern of the crude extracts obtained by ultrasound treatment and clarified by centrifugation was determined by SDS polyacrylamide gel electrophoresis, comparing with the noninduced control; with the induction conditions mentioned, the proportion of nitrilase in the protein was about 30% for each of JM 109 (pDHE 17) and JM 109 (pDHE 18).
The nitrilase with His6 motif from JM 109 (pDHE 18) was purified by washing the cells in 50 mM Tris/HCl, pH 7.5, resuspending equivalent to about 50 OD600/ml and preparing extracts with a French press (2×at 20000 psi). […]
In this case, one unit is equivalent to the production of 1 μmol of benzoic acid at an initial benzonitrile concentration of 10 mM, 30° C. and pH 7.5. […] The formation of benzoic acid was determined by HPLC (RP18 column, 250×4 [lacuna], mobile phase 47% methanol, 0.3% H3PO4).

With B1 the “conversion of 2-benzonitrile [sic] into benzoic acid (specific activity), purified nitrilase” value was “around 11 U/mg”.

System: nitrilase (nitA) from Rhodococcus rhodochrous NCIMB 11216 expressed in E. coli JM 109
Assay: Conversion of nitriles by E. coli JM 109 (pDHE 17 and pDHE 18) cells; NH4 ions produced in supernatant, measured at 620 nm
Assay type: biochemical
Details: Experiment 1; E. coli JM 109 (pDHE 17 and pDHE 18) cells, 2 g DBM/l, 30° C., 200 rpm, 1 h; measurement at 620 nm
Description: Various nitriles were converted using the E. coli strains JM 109 (pDHE 17 and pDHE 18). The cells were for this purpose cultured in 250 ml LB/Amp medium+2 g/l rhamnose at 30° C. and 200 rpm for 9 hours (=h). The cells were harvested by-centrifugation (20 min, 4° C., 5000 rpm). The cells were then resuspended in 10 mM phosphate buffer, pH 7.2, so that the concentration of dry biomass (DBM) was 2 g DBM/l. 150 μl portions of the cell suspension were pipetted into each well of a microtiter plate. The plate was then centrifuged. The supernatant was aspirated off and the cell pellets were washed twice with Na2HPO4 [sic] (1.42 g/lin Finnagua, pH 7.2). After another centrifugation step, the cell pellets are [sic] resuspended in the respective substrate solution (150 μl). One substrate was added to each row of 12 in the microtiter plate. A row with substrate solution but without cells was used as control (blank). The microtiter plates were incubated in a shaking incubator at 30° C. and 200 rpm for 1 h. The cells were then spun down and the amount of NH4 [sic] ions produced in the supernatant was determined using a Biomek instrument. Measurement took place at 620 nm, comparing with a calibration plot produced using various NH4OH solutions. The substrates employed in Experiment 1 (see FIG. 3, Table 1) were the following substrates: benzonitrile (=1), 3-hydroxypropionitrile (=2), 2-methylglutaronitrile (=3), 4-chloro-3-hydroxybutyronitrile (=4), malononitrile (=5), crotononitrile (=6), geranonitrile (=7), octanedinitrile (=8), pivalonitrile (=9), aminocapronitrile (=10), 3,4-dihydroxybenzonitrile (=11), 3,5-dibromo-4-hydroxybenzonitrile (=12), 3-cyanopyridine (=13), 4-bromobenzyl cyanide (=14), 4-chlorobenzyl cyanide (=15), 2-phenylbutyronitrile (=16), 2-chlorobenzyl cyanide (=17), 2-pyridylacetonitrile (=18), 4-fluorobenzyl cyanide (=19), 4-methylbenzonitrile (=20), benzyl cyanide (=21). The substrates used in Experiment 2 (see FIG. 4, Table 2), which was carried out in analogy to Experiment 1, were as follows: […]

First: N#CCc1ccccc1Cl [2-Chlorobenzyl cyanide]
Second: N#CCc1ccccc1 [Benzyl cyanide]
The “amount of NH4 ions produced in the supernatant (Table 1, Experiment 1)” value (shortened to “amount … (Table 1, Experiment 1)”) of the first is higher: 0.4530 for the first, 0.2755 for the second.

Compared with `CC(C#N)CCC#N` (stereo not shown) [2-Methylglutaronitrile], `N#CCCCCCCC#N` [Octanedinitrile] is lower in “amount … (Table 1, Experiment 1)” value: 0.4758 for the first, 0.4548 for the second.

Compared with `CCC(C#N)c1ccccc1` (stereo not shown) [2-Phenylbutyronitrile], `N#Cc1ccccc1` [Benzonitrile] is higher in “amount … (Table 1, Experiment 1)” value: 0.1376 for the first, 0.4051 for the second.

First: N#CCc1ccccn1 [2-Pyridylacetonitrile]
Second: N#Cc1cccnc1 [3-Cyanopyridine]
The “amount … (Table 1, Experiment 1)” value of the first is lower: 0.1222 for the first, 0.2393 for the second.

First: N#Cc1ccc(O)c(O)c1 [3,4-Dihydroxybenzonitrile]
Second: Cc1ccc(C#N)cc1 [4-Methylbenzonitrile]
The “amount … (Table 1, Experiment 1)” value of the first is lower: 0.1569 for the first, 0.4326 for the second.

Compared with `N#Cc1cc(Br)c(O)c(Br)c1` [3,5-Dibromo-4-hydroxybenzonitrile], `N#CCc1ccc(Br)cc1` [4-Bromobenzyl cyanide] is higher in “amount … (Table 1, Experiment 1)” value: 0.1624 for the first, 0.5213 for the second.

First: N#CCCO [3-Hydroxypropionitrile]
Second: N#CCCCCCN [Aminocapronitrile]
The “amount … (Table 1, Experiment 1)” value of the first is higher: 0.1785 for the first, 0.1236 for the second.

`N#CCC(O)CCl` (stereo not shown) [4-Chloro-3-hydroxybutyronitrile] and `N#CCC#N` [Malononitrile] are the same in “amount … (Table 1, Experiment 1)” value: 0.1208 for the first, 0.1208 for the second.

First: N#CCc1ccc(Cl)cc1 [4-Chlorobenzyl cyanide]
Second: N#CCc1ccc(F)cc1 [4-Fluorobenzyl cyanide]
The “amount … (Table 1, Experiment 1)” value of the first is higher: 0.4830 for the first, 0.2361 for the second.

First: CC=CC#N [Crotononitrile]
Second: CC(C)=CCC/C(C)=C/C#N [Geranonitrile]
The “amount … (Table 1, Experiment 1)” value of the first is higher: 0.4946 for the first, 0.1517 for the second.

In the case of `CC(C)(C)C#N` [Pivalonitrile], the “amount … (Table 1, Experiment 1)” value is reported as 0.1569.

Same assay, conditions: Experiment 2, in analogy to Experiment 1; E. coli JM 109 cells, 30° C., 1 h; measurement at 620 nm

`N#CC(N)c1ccccc1` (stereo not shown) [2-Amino-2-phenylacetonitrile] and `CC(C#N)c1ccccc1` (stereo not shown) [2-Phenylpropionitrile] are the same in “amount of NH4 ions produced in the supernatant (Table 2, Experiment 2)” value (from here on “amount … (Table 2, Experiment 2)”): 0.0000 for the first, 0.0000 for the second.

`N#CC(O)CCc1ccccc1` (stereo not shown) [2-Hydroxy-4-phenylbutyronitrile] and `N#CC(O)c1ccccc1` (stereo not shown) [Mandelonitrile] are the same in “amount … (Table 2, Experiment 2)” value: 0.0000 for the first, 0.0000 for the second.

Compared with `CC(O)C#N` (stereo not shown) [2-Hydroxypropionitrile], `CCC#N` [Propionitrile] is higher in “amount … (Table 2, Experiment 2)” value: 0.0000 for the first, 0.4135 for the second.

First: COC(CC#N)OC [3,3-Dimethoxypropionitrile]
Second: CCCCC#N [Valeronitrile]
The “amount … (Table 2, Experiment 2)” value of the first is lower: 0.1466 for the first, 1.9218 for the second.

Compared with `N#CCc1ccsc1` [3-Cyanomethylthiophene], `N#Cc1ccsc1` [3-Cyanothiophene] is higher in “amount … (Table 2, Experiment 2)” value: 0.9949 for the first, 1.9038 for the second.

Compared with `N#CCC(CC#N)c1ccccc1` [3-Phenylglutaronitrile], `N#Cc1ccccc1` [Benzonitrile] is higher in “amount … (Table 2, Experiment 2)” value: 0.0000 for the first, 1.9518 for the second.

Going from `N#C/C=C/C#N` [Fumaronitrile] to `N#C/C=C/c1ccccc1` [trans-cinnamonitrile], the “amount … (Table 2, Experiment 2)” value falls from 2.2510 to 2.2509.

In the case of `N#CCCCC#N` [Glutaronitrile], the “amount … (Table 2, Experiment 2)” value is reported as 2.0809.
